From patent US10045529B2, “Quat cleaner with glycerin ether ethoxylates” (Ecolab USA Inc., priority 2012, dated 2018)

Columns and labels:
[1] = Cloud point of solfactants in various solutions; format: physicochemical
Excerpt: Various 2-Ethyl Hexanol Glycerin Ether Ethoxylate solfactants were produced using ethoxylation by a KOH Catalyst.
Further the cloud point data for the solfactants in various solutions is shown. The cloud point temperatures show the temperature above which a surfactant-rich phase separates from an aqueous solution. There is a clear relationship between the cloud point and the average EO content of the glycerin ether ethoxylate; as the ethylene oxide content of the solfactant increases, the cloud point and water solubility increase. As the carbon number on the molecule increases, a greater number of moles of ethylene oxide are required to be added to the molecule to retain the same cloud point.

[2] = Glewwe foam meter foam height test; format: physicochemical; details: 50 ppm; for OBSERVATIONS (foam stability after pump stopped): after 5 minutes pump stopped; for Foam Height (in) @ 1 MIN / Foam Height (in) @ 5 MIN: city water 17 gpg, 140° F., 6 psi; for Foam Height (in) @ 1 MIN: 1 minute
Excerpt: Foam testing was completed for the ethoxylated glycerine ether solfactants in comparison to commercially-available ethoxylated alcohols using a Glewwe foam meter. A Glewwe foam meter provides a dynamic foam test rather than a static test, which is considered more appropriate for simulation of industrial conditions. The equipment and general procedure for the Glewwe form test is described in U.S. Pat. Nos. 3,899,387 and 5,447,648, which are herein incorporated by reference in its entirety. The foam meter itself consists of a thermostated reservoir and a pump to recirculate the aqueous medium with foaming tendencies. The foam developed by the action of the aqueous stream impinging on the surface in the reservoir causes foam formation.
The foam heights of the tested compositions were determined using the following method. First 3000 mL of city water (e.g. 17 gpg) was filled into the Glewwe cylinder. The pump was turned on, pressure adjusted to 6 psi, and heated water to 140° F. The commercially available surfactant (or the solfactant according to the invention) was added at 50 ppm in the cylinder and the timer was started. Foam height was recorded at 1 minute and 5 minutes. After 5 minutes the pump was stopped and foam stability characteristics were observed. The cylinder was then drained, rinsed, and the methods repeated.

Gel formation with water = format: physicochemical
Excerpt: The low foam profiles and low viscosity of the glycerin ether ethoxylate solfactants as shown in Examples 5 and 6 were further compared to gel curves of conventional ethoxylated alcohols (e.g. Tomadol surfactants). […]

[3] = Tergotometer detergency test on EMPA soiled swatches
Protocol: Laundry detergent compositions using 500 ppm sodium hydroxide (e.g. caustic) and the indicated conventional Surfonic® surfactant or the glycerin ether ethoxylate solfactant according to the invention were evaluated. A tergotometer test procedure was employed to measure detergency of test compositions according to the invention. A tergotometer along with 500 mL pots and water bath were employed. First, unwashed swatches from the lot numbers to be used in the test are read on the Konica Minolta Spectrophotometer model CM-3600d to establish the average initial (before washing) L value. A sampling of each swatch type is used. The desired wash temperature is programmed into the Tergotometer and its water bath is allowed to heat up to that temperature. 500 mL of the desired water type is added to each Tergotometer pot and allowed to equilibrate to the desired temperature.
The following standard, commercially available (EMPA) soiled swatches were used for baseline testing in the Examples, as shown in Table 9.
The test detergent compositions are weighed out and added to the Tergotometer pots. Various detergent compositions as shown in Tables 10-11 were employed under varying water conditions, including 5 grain water (Table 10) and 17 grain water (Table 11).
The detergent systems were agitated for 10 minutes to mix and dissolve in the water sources. The agitation/mixing speed RPM was adjusted to 200. The temperature of the detergent compositions dissolved in water was 60° C., unless indicated otherwise in the Figures/Examples set forth below. The swatches are added quickly to their respective pots in a left to right sequence in order to minimize differences in exposure time to the detergent systems. A wash run is completed for at least 10 minutes. At the end of the run, the swatches are removed from the pots quickly in a left to right sequence using a forceps and are transferred into 500 mL-1 liter of cool water to rinse. After rinsing with cold tap water, excess water from the swatches was removed by squeezing the swatches. The process was repeated with rinsing and squeezing excess water at least 2 more times. The swatches were air dried on a visa napkin or paper towel on the lab bench.
The swatches were then read on the HunterLab Color Quest and calculate % soil removal (i.e. whiteness) from the difference between the initial (before washing) L value and the final L value (after washing). Percent Soil Removal=(L after−L initial)/(96−L initial)*100 is represented as L*.

[4] = Glycerin Ether Ethoxylate %/Water % 10%/90%
[5] = 5 gpg water, 50 ppm, 500 ppm sodium hydroxide, 60° C., EMPA 116 (Blood, milk and ink, Cotton)
[6] = 5 gpg, 50 ppm, EMPA 101 (olive oil/carbon black, Cotton)
[7] = 5 gpg, 50 ppm, EMPA 104 (olive oil/carbon black, Cotton blend)
[8] = 5 gpg, 50 ppm, EMPA 106 (mineral oil, Cotton)
[9] = 5 gpg, 50 ppm, EMPA 111 (Pig blood, Cotton)
[10] = 5 gpg, 50 ppm, EMPA 114 (Red wine, Cotton)

Substance | OBSERVATIONS (foam stability after pump stopped) [2] | Foam Height (in) @ 1 MIN [2] [in] | Foam Height (in) @ 5 MIN [2] [in] | % removal EMPA 116 [3, 5] [%] | % removal EMPA 101 [3, 6] [%] | % removal EMPA 104 [3, 7] [%] | % removal EMPA 106 [3, 8] [%] | % removal EMPA 111 [3, 9] [%] | % removal EMPA 114 [3, 10] [%] | % removal EMPA 101 ([3]; 5 gpg, 100 ppm, EMPA 101) [%] | % removal EMPA 104 ([3]; 5 gpg, 100 ppm, EMPA 104) [%] | % removal EMPA 106 ([3]; 5 gpg, 100 ppm, EMPA 106) [%] | % removal EMPA 111 ([3]; 5 gpg, 100 ppm, EMPA 111) [%] | % removal EMPA 114 ([3]; 5 gpg, 100 ppm, EMPA 114) [%] | % removal EMPA 116 ([3]; 5 gpg, 100 ppm, EMPA 116) [%] | % removal EMPA 101 ([3]; 17 gpg, 50 ppm, EMPA 101) [%] | % removal EMPA 104 ([3]; 17 gpg, 50 ppm, EMPA 104) [%] | % removal EMPA 106 ([3]; 17 gpg, 50 ppm, EMPA 106) [%] | % removal EMPA 111 ([3]; 17 gpg, 50 ppm, EMPA 111) [%] | % removal EMPA 114 ([3]; 17 gpg, 50 ppm, EMPA 114) [%] | other results
2-Ethyl Hexanol Glycerin Ether Ethoxylate (3 moles) [2EHGE (3 EO)] | Unstable - Breaks | 3.5 | 4 | 34 | 45 | 49 | 60.8 | 50 | 1 | 29 | 25 | 50.39 | 48 | 0 | 29 | 17 | 15 | 14 | 29 | −2 | Cloud Point Data 1% in 10% NaCl [1]: 33 °C; Cloud Point Data 1% in D.I. H2O ([1]; 1% in D.I. H2O): 50.5 °C; Gel Formation (Gel formation with water; 20%/80%): None; Gel Formation (Gel formation with water; 30%/70%): None; Gel Formation (Gel formation with water; 40%/60%): None; Gel Formation (Gel formation with water; 50%/50%): None; Gel Formation (Gel formation with water; 60%/40%): None; Gel Formation (Gel formation with water; 70%/30%): None; Gel Formation (Gel formation with water; 80%/20%): None; Gel Formation (Gel formation with water; 90%/10%): None; Gel Formation (Gel formation with water; [4]): None; % removal EMPA 116 ([3]; 17 gpg, 50 ppm, EMPA 116): 15%; % removal EMPA 101 ([3]; 17 gpg, 100 ppm, EMPA 101): 19%; % removal EMPA 104 ([3]; 17 gpg, 100 ppm, EMPA 104): 13%; % removal EMPA 106 ([3]; 17 gpg, 100 ppm, EMPA 106): 9%; % removal EMPA 111 ([3]; 17 gpg, 100 ppm, EMPA 111): 27%; % removal EMPA 114 ([3]; 17 gpg, 100 ppm, EMPA 114): −1%; % removal EMPA 116 ([3]; 17 gpg, 100 ppm, EMPA 116): 16%
2-Ethyl Hexanol Glycerin Ether Ethoxylate (1 mole) [2EHGE (1 EO)] | Unstable - Breaks | 3 | 3 | 26 | 27 | 26 | 50.77 | 49 | 0 | 29 | 21 | 48.73 | 52 | −1 | 27 | 19 | 14 | 6 | 32 | 0 | Cloud Point Data 10% in BDG Soln. ([1]; 10% in BDG Soln.): 59.5 °C; % removal EMPA 116 ([3]; 17 gpg, 50 ppm, EMPA 116): 17%; % removal EMPA 101 ([3]; 17 gpg, 100 ppm, EMPA 101): 18%; % removal EMPA 104 ([3]; 17 gpg, 100 ppm, EMPA 104): 15%; % removal EMPA 106 ([3]; 17 gpg, 100 ppm, EMPA 106): 7%; % removal EMPA 111 ([3]; 17 gpg, 100 ppm, EMPA 111): 30%; % removal EMPA 114 ([3]; 17 gpg, 100 ppm, EMPA 114): −1%; % removal EMPA 116 ([3]; 17 gpg, 100 ppm, EMPA 116): 17%
2-Ethyl Hexanol Glycerin Ether Ethoxylate (5 moles) [2EHGE (5 EO)] | Unstable - Breaks | 4 | 4 | 30 | 40 | 48 | 59.51 | 48 | 2 | 29 | 23 | 49.62 | 45 | 1 | 28 | 19 | 15 | 13 | 30 | 0 | Cloud Point Data 1% in 10% NaCl [1]: 71.5 °C; Gel Formation (Gel formation with water; 20%/80%): None; Gel Formation (Gel formation with water; 30%/70%): None; Gel Formation (Gel formation with water; 40%/60%): None; Gel Formation (Gel formation with water; 50%/50%): None; Gel Formation (Gel formation with water; 60%/40%): None; Gel Formation (Gel formation with water; 70%/30%): None; Gel Formation (Gel formation with water; 80%/20%): None; Gel Formation (Gel formation with water; 90%/10%): None; Gel Formation (Gel formation with water; [4]): None; % removal EMPA 116 ([3]; 17 gpg, 50 ppm, EMPA 116): 17%; % removal EMPA 101 ([3]; 17 gpg, 100 ppm, EMPA 101): 21%; % removal EMPA 104 ([3]; 17 gpg, 100 ppm, EMPA 104): 19%; % removal EMPA 106 ([3]; 17 gpg, 100 ppm, EMPA 106): 11%; % removal EMPA 111 ([3]; 17 gpg, 100 ppm, EMPA 111): 41%; % removal EMPA 114 ([3]; 17 gpg, 100 ppm, EMPA 114): 0%; % removal EMPA 116 ([3]; 17 gpg, 100 ppm, EMPA 116): 20%
2-Ethyl Hexanol Glycerin Ether Ethoxylate (7 moles) [2EHGE (7 EO)] | Unstable - Breaks | 5 | 4.5 | 33 | 38 | 47 | 59.88 | 52 | 1 | 25 | 17 | 46.8 | 49 | −3 | 19 | 20 | 15 | 11 | 32 | 0 | Cloud Point Data 1% in 10% NaCl [1]: 78 °C; Gel Formation (Gel formation with water; 20%/80%): None; Gel Formation (Gel formation with water; 30%/70%): None; Gel Formation (Gel formation with water; 40%/60%): None; Gel Formation (Gel formation with water; 50%/50%): None; Gel Formation (Gel formation with water; 60%/40%): None; Gel Formation (Gel formation with water; 70%/30%): None; Gel Formation (Gel formation with water; 80%/20%): None; Gel Formation (Gel formation with water; 90%/10%): None; Gel Formation (Gel formation with water; [4]): None; % removal EMPA 116 ([3]; 17 gpg, 50 ppm, EMPA 116): 16%; % removal EMPA 101 ([3]; 17 gpg, 100 ppm, EMPA 101): 20%; % removal EMPA 104 ([3]; 17 gpg, 100 ppm, EMPA 104): 17%; % removal EMPA 106 ([3]; 17 gpg, 100 ppm, EMPA 106): 9%; % removal EMPA 111 ([3]; 17 gpg, 100 ppm, EMPA 111): 35%; % removal EMPA 114 ([3]; 17 gpg, 100 ppm, EMPA 114): 0%; % removal EMPA 116 ([3]; 17 gpg, 100 ppm, EMPA 116): 17%
